The values below come from patent publication US6426362B1, “Formulations of tocopherols and methods of making and using them” (Galileo Laboratories, Inc., priority 1999, dated 2002).

This test concerns Oxidatively competent cells. Put plainly: Antimycin A-induced cell death in oxidatively competent cells, SYTOX assay after 4 hours. The test is classed as cell-based, rat-human hybrid (GCL1). Particulars: for cell death when tested individually: highest concentrations tested; for Cell Death (%): ± SD; for potency among the tocopherols tested: Table 1 comparison. An excerpt:
The GCL1 (WiF-B) liver cell line is a hybrid originating from the fusion of rat hepatoma cells (fao) and human fibroblasts (W138). Cassio et al. (1991) J. Cell Biol. 115:1397-1408; Shanks et al. (1994) J. Cell Science 107:813-825. […] Ihrke et al. 1993, J. Cell Biol. 123:1761-1775. At greater than 80% confluence, more than 80% of the cells participate in forming one or more phaselucent, spherical structures that are located between cells, termed bile canicular-like spaces. In contrast to the majority of cell lines maintained in culture which are fermentative, GCL1 cells, when at their maximal density and polarity, are highly oxidative (i.e., they can be readily killed by inhibitors of oxidative phosphorylation or electron transport uncouplers). […] These cells are amenable to use in high throughput screening (HTS) technology.
Energetically competent cells are seeded onto 96-well plates at 1×10^3/well or 2.5×10^3/well as passage 15. The cells are grown in DMEM with 10% FBS and 1.5 g/L sodium bicarbonate for 24 or 48 hours to reach 85% confluence. The cells are washed once with HBSS and then 100 μl of HBSS containing different concentration of AA (Sigma Chemical Co., Cat # A 8674) is added to the cells. AA is dissolved in DMSO to make a stock solution of 50 mM, then diluted with HBSS to 100, 50, 25, 12.5, 6.25, 3.125, and 1.56 μM for dose-response curves. The cells, with or without AA, are incubated at 37° C. in a 5% CO2 humidified incubator for 1, 3, and 5 hours. The concentration of AA is chosen to induce 75% or 100% cell death as a screening dose to test the effect of tocopherols to protect against AA-induced cell toxicity. The concentration of agents used for screening will be dependent upon the agents. Certain control groups contain 100 μl of HBSS only.
SYTOX Green nucleic acid stain is a high-affinity nucleic acid stain that easily penetrates cells with a compromised plasma membrane but will not cross the membrane of live cells. The nucleic acids of dead cells fluoresce bright green at 524 nm when excited with the 488 nm spectral source or with any other 450-500 nm source. […] In the cell viability assay chemical ischemia is created in cells that are incubated with the SYTOX dye. The compound antimycin is used to simulate ischemia at the same time as stimulating the cells with forskolin. […] The assay is performed on cells grown in 96-well format allowing high throughput screening of compounds.
Materials: (i)SYTOX Green dye, supplied as a 5 mM solution in DMSO (Molecular Probes # S-7020) is stored at −20° C. until use. ii.) Antimycin-A: (Sigma # A-8674) dissolve […] in 10 ml of DMSO to make a 10 mM stock solution. Aliquot at 100 μl. This 10 mM stock is then diluted to 1 mM with DMSO and aliquoted at 25 μL. Both the 10 mM and the 1 mM are stored at −20° C. until use. (iii) Forskolin (Sigma # F-6886), dissolve 50 mg aliquot in 1.62 ml of DMSO to make a 100 mM stock solution. Aliquot at 100 μl and store at −20° C. until use. iv.) HBSS-SYTOX-FORSKOLIN-ANTIMYCIN (H-S-F-A) solution: H-S-F-A solution is made up fresh prior to each assay in sterile 175 ml or 225 ml Falcon bottles. The working concentrations for the assay are 3 μM SYTOX, 50 μM Forskolin and 30 μM Antimycin.
Cells are grown in 96-well black plates (with or without clear bottoms) at a density of 1000 cells per well for 24 hours. The necessary number of 96-well plates containing the specific cell type are obtained and placed in the laminar flow safety cabinet. A sterile microtiter basin is filled with the appropriate volume of pre-warmed 1×HBSS. Using aseptic technique and an 8-channel aspirator, the media is carefully removed from the cells and replaced with 200 μl of 1×HBSS. This is done as quickly as possible to prevent the cells drying out. The plates are then placed in the humidified 37° C. incubators of the Biomek 2000 Side Loader.

The mark [1] stands for this setting: dose 1.2 μg/ml, with antimycin A, 4 hours, SYTOX.
The mark [2] stands for this setting: dose 3.7 μg/ml, with antimycin A, 4 hours, SYTOX.
Where [3] appears, read: dose 11 μg/ml, with antimycin A, 4 hours, SYTOX.
The mark [4] stands for this setting: dose 33 μg/ml, with antimycin A, 4 hours, SYTOX.
Setting [5] is: dose 100 μg/ml, with antimycin A, 4 hours, SYTOX.
Where [6] appears, read: salts of (+)alpha-tocopherol, dose of tocopherol 1.2 μg/ml.
Where [7] appears, read: salts of (+)alpha-tocopherol, dose of tocopherol 3.7 μg/ml.
Where [8] appears, read: salts of (+)alpha-tocopherol, dose of tocopherol 11 μg/ml.
The mark [9] stands for this setting: salts of (+)alpha-tocopherol, dose of tocopherol 33 μg/ml.
[10] abbreviates: salts of (+)alpha-tocopherol, dose of tocopherol 100 μg/ml.

Take `Cc1c(C)c2c(c(C)c1O)CCC(C)(CCCC(C)CCCC(C)CCCC(C)C)O2` (racemic) [(+/−) alpha-tocopherol, 2,5,7,8-tetramethyl-2-(4′,8′,12′-trimethyltridecyl)-6-chromanol]: the “protection against stress-induced cell death” value (“protection” below) ((+/−) alpha-tocopherol alone at 10 μg/ml) is on record as “about 15%”. Moreover, the cell death (Example 7, alone at 10 μg/ml (highest concentration tested)) is listed as 53% and the cell death (Example 8, tocopherol alone at 10 μg/ml) was 79.4%. Also, where the note is “daidzein experiment”, the “cell death when tested individually” value is reported as “over half of the cells died”. The “Cell Death (%)” value is given as 77.2% ± 0.8 under setting [1]; 73.5% ± 1.2 under setting [2]; 52.4% ± 3.4 under setting [3]; 44.2% ± 1.2 under setting [4]; 19.7% ± 2.9 under setting [5].

For the molecule `Cc1c(C)c2c(c(C)c1O)CC[C@@](C)(CCC[C@H](C)CCC[C@H](C)CCCC(C)C)O2` (relative stereo) [(+) alpha-tocopherol, [2R-2R*(4R*,8R*)]-3,4-dihydro-2,5,7,8-tetramethyl-2-(4,8,12-trimethyltridecyl)-2H-1-benzopyran-6-ol], the “Cell Death (%)” value under setting [1] was 77.0% ± 2.5; the “Cell Death (%)” value under setting [2] is recorded as 70.13% ± 5.8; the “Cell Death (%)” value under setting [3] is 64.4% ± 3.1; the “Cell Death (%)” value under setting [4] is 49.8% ± 6.0; the “Cell Death (%)” value under setting [5] is recorded as 33.78% ± 1.5.

For the molecule `Cc1cc(O)cc2c1O[C@](C)(CCC[C@H](C)CCC[C@H](C)CCCC(C)C)CC2` (relative stereo) [(+) delta-tocopherol, [2R-[2R*(4R*,8R*)]]-3,4-dihydro-2,8-dimethyl-2-(4,8,12-trimethyltridecyl)-2H-1-benzo-pyran-6-ol], the “potency among the tocopherols tested” value is listed as “most potent”. For the same molecule, the “Cell Death (%)” value under setting [1] is 61.3% ± 4.2. The “Cell Death (%)” value under setting [2] is reported as 39.3% ± 3.8. For the same molecule, the “Cell Death (%)” value under setting [3] was 21.3% ± 1.0. The “Cell Death (%)” value under setting [4] is recorded as −8.19% ± 1.4. In addition, the “Cell Death (%)” value under setting [5] is listed as −68.19% ±.

Turning to `Cc1c(O)cc2c(c1C)OC(C)(CCCC(C)CCCC(C)CCCC(C)C)CC2` (centres unmarked) [+ gamma-tocopherol, 3,4-dihydro-2,7,8-trimethyl-2-(4,8,12-trimethyltridecyl)-2H-1-benzyopyran-6-ol], the “potency among the tocopherols tested” value is given as “most potent”. The molecule further registered a cell death (Example 7, alone at 1 μg/ml (highest concentration tested)) of 62.5%. Under setting [1], the “Cell Death (%)” value is given as 76.8 ± 3.1%. Under setting [2], the “Cell Death (%)” value was 69.3 ± 3.3%. Under setting [3], the “Cell Death (%)” value was 37.2 ± 0.7%. Moreover, under setting [4], the “Cell Death (%)” value turned out to be 16.7 ± 1.9%. Also, the “Cell Death (%)” value under setting [5] is reported as −8.5 ± 3.3%. Moreover, the “protection” value (gamma-tocopherol alone, 0.03-0.3 μg/ml) is recorded as “not protective by itself”.

For the molecule `CC(=O)Oc1c(C)c(C)c2c(c1C)CCC(C)(CCC[C@H](C)CCC[C@H](C)CCCC(C)C)O2` (stereo partly drawn) [alpha-tocopherol acetate], the “Cell Death (%)” value under setting [6] was 73.2% ± 3.3; the “Cell Death (%)” value under setting [7] was 77.5% ± 4.9; the “Cell Death (%)” value under setting [8] is listed as 71.1% ± 1.5; the “Cell Death (%)” value under setting [9] is on record as 64.8% ± 4.9; the “Cell Death (%)” value under setting [10] was 38.% ± 2.3; the “Cell Death (%)” value (salts of (+)alpha-tocopherol, dose of tocopherol 100 μg/ml, listed as acetate salt of alpha-tocopherol) came out at 38%.

Turning to `Cc1c(C)c2c(c(C)c1OC(=O)c1cccnc1)CC[C@@](C)(CCC[C@H](C)CCC[C@H](C)CCCC(C)C)O2` [alpha-tocopherol nicotinate], the “Cell Death (%)” value is on record as 81.0 ± 2.5% under setting [6]; 76.8 ± 7.0% under setting [7]; 74.0 ± 2.4% under setting [8]; 77.5 ± 3.0% under setting [9]; 67.5 ± 2.8% under setting [10].

With `Cc1c(C)c2c(c(C)c1OP(=O)(O)O)CC[C@@](C)(CCC[C@H](C)CCC[C@H](C)CCCC(C)C)O2` [alpha-tocopherol phosphate], the “Cell Death (%)” value is, setting by setting: under setting [6], 79.7 ± 8.7%; under setting [7], 76.5 ± 4.2%; under setting [8], 83.9 ± 4.4%; under setting [9], 47.2 ± 10.8%; under setting [10], 43.2 ± 17.4%.

As to `Cc1c(C)c2c(c(C)c1OC(=O)CCC(=O)O)CC[C@@](C)(CCC[C@H](C)CCC[C@H](C)CCCC(C)C)O2` [alpha-tocopherol succinate], the “Cell Death (%)” value runs as follows: under setting [6], 85.8 ± 1.4%; under setting [7], 83.9 ± 0.3%; under setting [8], 85.5 ± 2.5%; under setting [9], 90.4 ± 7.4%; under setting [10], 98.7 ± 6.0%.

Consider `Cc1c(C)c2c(c(C)c1O)CCC(C)(CCCC(C)CCCC(C)CCCC(C)C)O2` (stereo not drawn) [alpha-tocopherol, 2,5,7,8-tetramethyl-2-(4′,8′,12′-trimethyltridecyl)-6-chromanol], for which the “cell death when tested individually” value (biochanin A experiment) was “about half of the cells died”.

With `COc1ccc(-c2coc3cc(O)cc(O)c3c2=O)cc1` [biochanin A, 5,7-dihydroxy-4′-methoxyiso-flavone], the “cell death when tested individually” value (biochanin A experiment) was “about half of the cells died”.

Take `O=c1c(-c2ccc(O)cc2)coc2cc(O)ccc12` [daidzein, 7-hydroxy-3-(4-hydroxyphenyl)-4H-1-benzopyran-4-one]: the “cell death when tested individually” value (daidzein experiment) is on record as “over half of the cells died”.

As for `COc1ccc(-c2cc(=O)c3c(O)cc(O[C@@H]4O[C@H](CO[C@@H]5O[C@@H](C)[C@H](O)[C@@H](O)[C@H]5O)[C@@H](O)[C@H](O)[C@H]4O)cc3o2)cc1O` [diosmin, reference compound], the “protection” value (diosmin alone at 100 μM) is on record as “no protection”; the “protection” value (diosmin alone, 3.3-100 μM) is “not protective by itself”; the “protection” value (diosmin alone, 33-100 μM) is reported as “not effective”.

Consider `COc1ccc([C@@H]2CC(=O)c3c(O)cc(O)cc3O2)cc1O` [hesperetin, (S)-2,3-dihydro-5,7-dihydroxy-2-(3-hydroxy-4-methoxyphenyl)-4H-1-benzopyran-4-one], for which, for the setting “2 and 50 μM heperitin, 0.22 and 3.6 μg/ml tocopherol, cell death four hours later”, the “efficacy when tested separately” value is on record as “generally ineffective”.
